# Experiments:
# [1] = molecular target: T1, human V1a receptors (Homo sapiens, UniProt P37288); test: Human vasopressin V1a cell-based receptor binding assay (3H-AVP competition)
# T1 construct: expressed in transfected cells; host or cells: CHO cells
# Method: Human or rat vasopression V1a, V1b, and/or V2 cell-based receptor binding assay. The V1a, V1b, and/or V2 cell lines (cells expressing either the human or rat V1a, V1b, and/or V2 receptors) were grown in alpha-MEM medium supplemented with 10% fetal bovine serum and 250 ug/ml G418 (Gibco, Grand Island, N.Y.) in 75 cm^2 flask. For competitive binding assay, hV1b cells were dissociated with enzyme-free, PBS based cell dissociation solution (Specialty Media, Phillipursburg, N.J.), following the manufacturer's protocol. Cells were plated into 12-well culture plates at a rate of one flask to 18 plates (rate should be adjusted according to the extent of confluency), and maintained in culture for 2-3 days. Culture medium was then removed, cells were washed once with 2 ml binding buffer (25 mM Hepes, 0.25% BSA, 1×DMEM, PH=7.0) at room temperature. To each well, 990 ul binding buffer containing 1 nM ^3H-AVP was added, and followed by the addition of 10 ul series diluted testing compounds or cold AVP, all dissolved in DMSO. […] Cells were incubated for 30 min at 37° C. in a moisturized incubator. Assay mixture was then removed and each well was washed three times with PBS (pH=7.4). […] Samples were counted in a liquid scintillation counter (Beckman LS3801). IC50 and Ki values were calculated using Prism Curve fitting software. […]
# [2] = molecular target: T2, human V1b receptors (Homo sapiens, UniProt P47901); test: Human vasopressin V1b cell-based receptor binding assay (3H-AVP competition); conditions: cells expressing human V1b receptor, 1 nM 3H-AVP
# T2 construct: expressed in transfected cells
# T2 sequence (P47901 1-424): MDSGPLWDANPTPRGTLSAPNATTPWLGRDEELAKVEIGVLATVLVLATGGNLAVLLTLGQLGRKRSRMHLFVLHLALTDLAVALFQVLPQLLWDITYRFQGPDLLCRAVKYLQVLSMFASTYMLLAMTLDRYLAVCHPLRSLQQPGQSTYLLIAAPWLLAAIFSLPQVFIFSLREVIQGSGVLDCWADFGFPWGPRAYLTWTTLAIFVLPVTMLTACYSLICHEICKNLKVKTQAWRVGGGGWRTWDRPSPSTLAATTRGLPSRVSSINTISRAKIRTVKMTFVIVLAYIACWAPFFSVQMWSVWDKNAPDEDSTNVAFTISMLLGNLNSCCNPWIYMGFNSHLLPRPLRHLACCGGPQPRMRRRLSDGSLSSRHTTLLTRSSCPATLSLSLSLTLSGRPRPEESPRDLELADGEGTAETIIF
# Excerpt: Human vasopression VIb receptor-expressing cells. Human vasopressin receptor 1B (HV1B) cDNA (see, Lolait et al., “Extrapituitary expression of the rat V1b vasopressin receptor gene” Proc. Natl. Acad. Sci. USA. 92:6783-7 (1995); de Keyzer et al., “Cloning and characterization of the human V3(V1b) pituitary vasopressin receptor” FEBS Lett. 356:215-20 (1994); Sugimoto et al., “Molecular cloning and functional expression of a cDNA encoding the human V1b vasopressin receptor” J. Biol. Chem. 269:27088-92 (1994)) was inserted into a mammalian cell expression vector PCI-neo (Promega) at EcoR1 site. The recombinant plasmid carrying HV1B cDNA was identified from transformed E. Coli clones and used for the transfection of Chinese hamster ovary cell (CHO-K1, ATCC). Two micrograms of HV1B receptor DNA was introduced into 10^5 CHO cells cultured in 6-well plate, using Fugene-6 mediated transfection technique (Boehringer Mannheim). Twenty-four hrs post transfection, Cells were then cultured under selection of G-418 (0.25 mg/ml) supplemented to the culture medium. Three days later, limited dilution was carried out to obtain single cell clones in 96-well plates. […]
# Human or rat vasopression V1a, V1b, and/or V2 cell-based receptor binding assay. […] Samples were counted in a liquid scintillation counter (Beckman LS3801). IC50 and Ki values were calculated using Prism Curve fitting software. […]
# T1 sequence (P37288 whole entry): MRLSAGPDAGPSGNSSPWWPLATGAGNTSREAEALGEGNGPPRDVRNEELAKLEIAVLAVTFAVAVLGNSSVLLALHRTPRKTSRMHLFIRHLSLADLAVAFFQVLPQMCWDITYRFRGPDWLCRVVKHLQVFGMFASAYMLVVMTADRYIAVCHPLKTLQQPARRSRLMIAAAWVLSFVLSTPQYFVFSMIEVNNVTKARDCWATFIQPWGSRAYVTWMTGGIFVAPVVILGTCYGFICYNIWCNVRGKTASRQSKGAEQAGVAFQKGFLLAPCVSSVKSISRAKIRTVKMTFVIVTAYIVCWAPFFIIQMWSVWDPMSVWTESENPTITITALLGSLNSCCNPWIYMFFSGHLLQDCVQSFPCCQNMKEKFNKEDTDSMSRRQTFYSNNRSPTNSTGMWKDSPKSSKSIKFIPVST
smiles,measurement,setting,value
"O=C(C(CSCc1ccccc1)N1C(=O)C(N2C(=O)OCC2c2ccccc2)C1C=Cc1ccccc1)N1CCC(CCN2CCCCC2)CC1 [Example 9B, (2S)-(Benzylthiomethyl)-2-[3(S)-(4(S)-phenyloxazolidin-2-on-3-yl)-4(R)-(2-styryl)azetidin-2-on-1-yl]acetic acid N-[4-[2-(piperid-1-yl)ethyl]piperidin-1-yl]amide]",Ki,"[1]; FIG. 1, competitive binding assay in CHO cells transfected with human V1a receptor, read-out: human V1b binding affinity (Ki)",0.07 nM
same,IC50,"[1]; cells expressing human V1a receptor, 1 nM 3H-AVP, read-out: Human V1a Binding Affinity (IC50 (nM))",0.11 nM
same,IC50,[2]; read-out: Human V1b Binding Affinity (IC50 (μM)),1.1 µM
same,Ki,[2]; read-out: Human V1b Binding Affinity (Ki (μM)),0.69 µM
